From US20120190615A1, “METHODS AND COMPOSITIONS FOR INDUCING WEIGHT LOSS” (Sanford-Burnham Medical Research Institute, priority 2011, published 2012)

Experiments:
[1] = tested on: C3H10T1/2 mesenchymal stem cells; experiment: Brown fat differentiation of C3H10T1/2 mesenchymal stem cells (Oil Red O, immunoblot, qRT-PCR, MitoTracker); assay type: cell-based, mouse
Experimental: OXR1 expression was confirmed in the undifferentiated mesenchymal stem cell line C3H10T1/2 cells (ATCC). Cells were grown to 50-70% confluence in high glucose DMEM supplemented with 10% FBS and differentiated in standard induction media supplemented with 100 nM human orexin A (cat. No. 24470, Anaspec), vehicle, or recombinant human BMP-7 (cat. No. 4579, BioVision, a potent inducer of […] differentiation) for three days, at which time cells reached 100% confluence. Cells were then incubated in adipogenic media for 7 days in the absence of […]. Cells were then stained with Oil Red O according to the following protocol. Cells were washed twice with phosphate-buffered saline (PBS), fixed with 10% buffered formalin for 1 hour at room temperature, washed twice in PBS, stained for 30 minutes at room temperature with a filtered Oil red O (Sigma) solution (0.5% Oil red O in isopropyl alcohol), washed twice with PBS, and stored in PBS for visualization under the inverted microscope (Olympus).
Following OX treatment, greater than 90% of cells differentiated from an elongated fibroblastic morphology to a spherical one typical of differentiated fat cells. OXR1 expression in the differentiated mesenchymal cells was done using RT-PCR analysis of the OXR1 mRNA. FIG. 4 provides the Ct value OXR1 and the Ct value for 18S RNA is shown for comparison.
To determine triglyceride content, BAT was homogenized in 1 ml of saline solution and Triglycerides Reagent Kit (Pointe Scientific) was used to determine triglyceride concentration in the tissue.
Protein extracts from the treated mesenchymal cells was used to assess the expression of early adipogenic transcription factors that are known to function in adipogenesis. Specifically, immunoblotting was used to assess the expression of C/ebp-alpha, Ppar-γ1, Prdm16, Pgc1-alpha, and Ucp1 in the differentiated mesenchymal stem cells.
The expression of several adipogenic inhibitors was assessed in the differentiated mesenchymal stem cells and control cells by qRT-PCR. Undifferentiated C3H10T1/2 cells abundantly express Necdin, preadpocyte factor-1 (Pref-1), and Wnt10a, all of which inhibit early adipogenic events. Preadipocytes must counteract an adipogenic block imposed by these factors in order to differentiate. […] FIG. 6 illustrates results from a PCR analysis of adipogenic inhibitors in C3H10T1/2 cells treated with BMP-7 or OX for 3 days followed by adipogenic induction for 7 days. Data are expressed as arbitrary units after normalization to 18S RNA.
The cultured mesenchymal stem cells were assessed for the expression of a variety of regulators of adipogenesis and mitochondrial function, qRT-PCR was performed as follows: RNA was isolated using Trizol lysis reagent (Qiagen) and purified by RNeasy Mini columns (Qiagen), cDNA was produced using an RT-PCR kit (Applied Biosystems) and primers synthesized by Integrated DNA Technologies, and PCR reactions were run in duplicate for each sample and quantified in the ABI Prism 7000 Sequence Detection System (Applied Biosystems) The expression of each RNA was normalized to the 18S RNA level.
Important adipogenic regulators such as C/ebp. […] Mitochondiral transcription factor (Tfam), cytochrome oxidase (Cox7a, Cox8b) and deiodinase-2 expression were elevated before exposure to adipogenic media, as shown in FIG. 10. […] Expression of stearoyl-CoA desaturase (Scd), an enzyme catalyzing the rate-limiting step in lipid biosynthesis, was also elevated over 100-fold during differentiation. mRNAs encoding other markers fatty acid oxidation such as Lp1, Sirt3, Adam15-1 and Adam15-2, and Adipor1 were enriched in differentiated mesenchymal stem cells following OX treatment (FIG. 11).
Based on the foregoing studies, three features distinguish BAT from WAT: the appearance of multilocular oil droplets, mitochondrial enrichment, and Ucp-1 expression. […]

HIB1 cells = experiment: Differentiation of HIB1 brown preadipocytes (lipid accumulation, mitochondrial biogenesis); assay type: cell-based; conditions: 24 hours, absence of standard induction cocktail
Experimental: To further investigate the role of OX in BAT differentiation, the effect of OX on the preadipocyte cell line HIB1 was evaluated. […] Expression of genes functioning in lipid metabolism and mitochondrial biogenesis was elevated while the anti-adipogenic factors […], Pref1, and Wnt10 were expressed at very low levels (FIG. 16).
HIB1 cells were stably transfected with lentivirus over-expressing orexin (Len-OX) and compared to vector controls in the absence or presence of exogenous OX (100 nM), Cells were cultured for 7 days in the absence of differentiation medium and stained with Oil Red O. By day 6 of adipogenic differentiation, orexin-expressing cells had undergone normal BAT differentiation as scored by lipid accumulation.
Brown fat morphological defects seen in both adult and newborn OXR1 KO mice were similar to those observed in OX KO mice. […] To examine the cellular and molecular consequences of OXR1 depletion, lentiviral vectors were used to express a short hairpin (sh) shRNA targeting OXR1 (shOXR1; Open Biosystems, Inc., catalog no. RMM4431-98766481) or a scrambled shRNA control (Open Biosystems, Inc., catalog no. RHS4346) in HIB1 mesenchymal cells. […] After 5 days of differentiation, cultures expressing the scrambled shRNA control had undergone brown fat differentiation as scored by Oil Red O staining and shown in FIG. 18. […]

[2] = tested on: Mouse embryonic fibroblasts (MEFs); experiment: Differentiation of mouse embryonic fibroblasts to a BAT lineage; assay type: cell-based; conditions: 3-day treatment, 7-10 days without induction cocktail, Oil Red O
Description: Mouse embryonic fibroblasts (MEFs) resemble mesenchymal cells in their ability to differentiate into various mesenchymal lineages. To determine whether OX triggers commitment of embryonic fibroblasts to a BAT lineage, MEFs isolated at […] were exposed to a differentiation protocol involving a 3-day treatment with Orexin A and BMP-7, and differentiation in the absence of the standard induction cocktail of IBMX, thiazolidone, and indomethacin for a further 7-10 days.

orexin-A (EPLPDCCRQKTCSCRLYELLHGAGNHAAGILTL) [OX, human orexin A, cat; No. 24470, Anaspec]
cells differentiated from fibroblastic to spherical morphology typical of differentiated fat cells ([1]; 100 nM OX 3 days, then adipogenic media 7 days): greater than 90%
mitochondrial biogenesis ([1]; MitoTracker staining): induced extensive mitochondrial biogenesis
expression of stearoyl-CoA desaturase (Scd), elevation ([1]; during differentiation): over 100 fold
rate and extent of cytoplasmic triglyceride accumulation ([1]; following OX treatment): comparable to that seen following treatment with BMP-7
expression of adipogenic transcription factors C/ebp-alpha, Ppar-γ1, Prdm16, Pgc1-alpha, Ucp1 ([1]; immunoblotting): comparable to that induced by BMP-7
Ucp-1 and deiodinase type 2 mRNA expression ([1]; qRT-PCR): induced
mRNAs encoding inhibitory factors Necdin, Preadipocyte factor-1, Wnt10a ([1]; qRT-PCR, 3 days treatment then 7 days adipogenic induction): suppression
Pref-1 expression ([1]; qRT-PCR, normalized to 18S RNA): decreased by two orders of magnitude
adipogenic regulators C/ebp, Prdm16, Ppar-gamma, Foxc2, Zfp423 ([1]; qRT-PCR, prior to suppression of adipogenic inhibitors): significantly increased
lipid accumulation and mitochondrial biogenesis (HIB1 cells): induced extensive lipid accumulation and mitochondrial biogenesis
phenotype of treated MEFs [2]: adopted a BAT phenotype
